Source: US20210330611A1, “THERAPY FOR NEUROLOGICAL DISEASES/DISORDERS” (priority 2020, published 2021)
Structures can show the parent of a compound that is named as a salt. Where two headings read alike, the source gives them in different places.

Key:
[1] = tested on: fibrin-induced microglia activation; experiment: Image-based assay of fibrin-induced microglia activation (HTS and dose response); assay type: cell-based, rat; conditions: for inhibition at 10 µM: Rattus norvegicus, Microglia, read-out: Fibrin % inhibition
[2] = tested on: fibrin- and LPS-induced microglia activation; experiment: cells; assay type: cell-based, rat
primary rat microglia [3] = experiment: Cell toxicity (dead cells, size <150 μm2) in coated fibrin (cFib) assay;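 further: share of dead cells sized under 150 µm2 at 10 µM in fibrin-stimulated microglia HTS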
[4] = tested on: LPS-induced microglia activation; experiment: Image-based assay of LPS-induced microglia activation (HTS and dose response); assay type: cell-based, rat; conditions: for inhibition at 10 µM: Rattus norvegicus, Microglia, read-out: LPS % inhibition
primary rat microglia [5] = experiment: Cell toxicity (dead cells, size <150 μm2) in LPS assay
[6] = primary HTS, 10 μM, fibrin-stimulated primary microglia
[7] = primary HTS, 10 μM, fibrin assay, dead cells size <150 μm2
[8] = primary HTS, 10 μM, LPS-stimulated primary microglia
[9] = primary HTS, 10 μM, LPS assay, dead cells size <150 μm2
[10] = primary microglia HTS, fibrin stimulation, increased cell size (>800 μm^2) as marker of activation
[11] = quadrant by fibrin and LPS inhibition in HTS of 1907 compounds
[12] = primary microglia HTS, fibrin stimulation, decreased size (<150 μm^2) as marker of toxicity
[13] = 48 h, primary microglia HTS, LPS stimulation, increased cell size (>800 μm^2) as marker of activation
[14] = primary microglia HTS, LPS stimulation, decreased size (<150 μm^2) as marker of toxicity
[15] = primary microglia HTS, fibrin stimulation, activation = cell size >800 μm2
[16] = primary microglia HTS, fibrin stimulation, toxicity = cell size <150 μm2
[17] = primary microglia HTS, LPS stimulation, toxicity = cell size <150 μm2
[18] = primary microglia HTS, 10 μM, fibrin-stimulated, cell size >800 μm^2 as marker of activation
[19] = HTS of 1907 compounds, quadrant by fibrin and LPS inhibition
[20] = primary microglia HTS, 10 μM, fibrin assay, cell size <150 μm^2 as marker of toxicity
[21] = primary microglia HTS, 10 μM, LPS-stimulated, cell size >800 μm^2 as marker of activation
[22] = primary microglia HTS, 10 μM, LPS assay, cell size <150 μm^2 as marker of toxicity
[23] = 48 h, primary microglia HTS, LPS stimulation, activation = cell size >800 μm2

**Q.** Which inhibition at 10 µM [1, 6] does the source give for `C=CC1=C(C(=O)O)N2C(=O)[C@@H](NC(=O)/C(=N\OCC(=O)O)c3csc(N)n3)[C@H]2SC1` [Cefixime] here?
**A.** The inhibition at 10 µM was 0%.

**Q.** And the “Quadrant (FIG. 5b)” value ([2]; primary HTS, 10 μM)?
**A.** The value was “Q4”.

**Q.** And the “Fibrin % cell toxicity” value (primary rat microglia [3]; [7])?
**A.** Its value is 1%.

**Q.** What about the inhibition at 10 µM [4, 8] of the same molecule?
**A.** The inhibition at 10 µM was -8%.

**Q.** And the “LPS % cell toxicity” value (primary rat microglia [5]; [9])?
**A.** Its value is 0%.

**Q.** How did the inhibition at 10 µM [1, 10] turn out when `CC[n+]1c(-c2ccccc2)c2cc(N)ccc2c2ccc(N)cc21` [Homidium Bromide] was run?
**A.** Its inhibition at 10 µM is 84%.

**Q.** And the “Quadrant (FIG. 5b)” value [2, 11]?
**A.** Its value is “Q2”.

**Q.** What about the “Fibrin % cell toxicity” value (primary rat microglia [3]; [12]) of the same molecule?
**A.** The value was 17%.

**Q.** And the inhibition at 10 µM [4, 13]?
**A.** The inhibition at 10 µM was 103%.

**Q.** And the “LPS % cell toxicity” value (primary rat microglia [5]; [14])?
**A.** Its value is 9%.

**Q.** What does the source list for `O=C(NCCN1CCOCC1)c1ccc(Cl)cc1` [Moclobemide]?
**A.** inhibition at 10 µM [1, 10]: -6%; Quadrant (FIG. 5b) [2, 11]: Q4; Fibrin % cell toxicity (primary rat microglia [3]; [12]): 1%; inhibition at 10 µM [4, 13]: 14%; LPS % cell toxicity (primary rat microglia [5]; [14]): 0%

**Q.** Which Fibrin % inhibition [1, 6] does the source give for `Cl.NC1CCN(c2c(F)cc3c(=O)c(C(=O)O)cn(C4CC4)c3c2Cl)C1` (centres unmarked) [Clinafoxacin Hydrochloride] here?
**A.** Its Fibrin % inhibition is −22%.

**Q.** And the “Quadrant (FIG. 5b)” value ([2]; primary HTS, 10 μM)?
**A.** Its value is “Q4”.

**Q.** And the “Fibrin % cell toxicity” value (primary rat microglia [3]; [7])?
**A.** Its value is 0%.

**Q.** What about the LPS % inhibition [4, 8] of the same molecule?
**A.** The LPS % inhibition was 9%.

**Q.** And the “LPS % cell toxicity” value (primary rat microglia [5]; [9])?
**A.** The value was 0%.

**Q.** What does the source list for `Cc1oncc1C(=O)Nc1ccc(C(F)(F)F)cc1` [Lefunamide, Leflunomide]?
**A.** Fibrin % inhibition [1, 15]: −22%; Quadrant (FIG. 5b) [2, 11]: Q4; Fibrin % cell toxicity (primary rat microglia [3]; [16]): 0%; LPS % inhibition ([4]; primary microglia HTS, LPS stimulation, activation = cell size >800 μm2): 10%; LPS % cell toxicity (primary rat microglia [5]; [17]): 0%

**Q.** Which results are given for `Nc1ccc(S(=O)(=O)Nc2ccnn2-c2ccccc2)cc1` [Sulfaphenazole]?
**A.** inhibition at 10 µM [1, 18]: -4%; Quadrant (FIG. 5b) [2, 19]: Q4; Fibrin % cell toxicity (primary rat microglia [3]; [20]): 1%; inhibition at 10 µM [4, 21]: 14%; LPS % cell toxicity (primary rat microglia [5]; [22]): 0%

**Q.** How did the inhibition at 10 µM [1, 18] turn out when `Nc1ccc(S(=O)(=O)NC(=O)c2ccccc2)cc1` [Sulfabenzamide] was run?
**A.** The inhibition at 10 µM was -15%.

**Q.** And the “Quadrant (FIG. 5b)” value [2, 19]?
**A.** Its value is “Q4”.

**Q.** And the “Fibrin % cell toxicity” value (primary rat microglia [3]; [20])?
**A.** Its value is 1%.

**Q.** And the inhibition at 10 µM [4, 21]?
**A.** The inhibition at 10 µM was 19%.

**Q.** What about the “LPS % cell toxicity” value (primary rat microglia [5]; [22]) of the same molecule?
**A.** The value was 1%.

**Q.** With `CCN(CC)CCOC(=O)C(Cc1cccc2ccccc12)CC1CCCO1` (centres unmarked) [Nafronyl Oxalate] as the molecule, how does the inhibition at 10 µM [1, 10] read?
**A.** Its inhibition at 10 µM is 15%.

**Q.** And the “Quadrant (FIG. 5b)” value [2, 11]?
**A.** Its value is “Q4”.

**Q.** And the “Fibrin % cell toxicity” value (primary rat microglia [3]; [12])?
**A.** The value was 1%.

**Q.** And the inhibition at 10 µM [4, 13]?
**A.** The inhibition at 10 µM was 15%.

**Q.** What about the “LPS % cell toxicity” value (primary rat microglia [5]; [14]) of the same molecule?
**A.** Its value is 0%.

**Q.** Which inhibition at 10 µM [1, 15] does the source give for `CC(C(=O)O)c1cccc(Oc2ccccc2)c1` (centres unmarked) [Fenoprofen] here?
**A.** The inhibition at 10 µM was -7%.

**Q.** And the “Quadrant (FIG. 5b)” value [2, 11]?
**A.** Its value is “Q4”.

**Q.** What about the “Fibrin % cell toxicity” value (primary rat microglia [3]; [16]) of the same molecule?
**A.** The value was 0%.

**Q.** What about the inhibition at 10 µM [4, 23] of the same molecule?
**A.** Its inhibition at 10 µM is -4%.

**Q.** And the “LPS % cell toxicity” value (primary rat microglia [5]; [17])?
**A.** The value was 0%.

**Q.** Which Fibrin % inhibition [1, 18] does the source give for `COC(=O)[C@@H]1[C@H]2C[C@H]3c4[nH]c5ccccc5c4CCN3C[C@@H]2CC[C@@H]1O` [Yohimbine] here?
**A.** The Fibrin % inhibition was 4%.

**Q.** What about the “Quadrant (FIG. 5b)” value [2, 19] of the same molecule?
**A.** The value was “Q4”.

**Q.** And the “Fibrin % cell toxicity” value (primary rat microglia [3]; [20])?
**A.** Its value is 1%.

**Q.** And the LPS % inhibition [4, 21]?
**A.** The LPS % inhibition was −17%.

**Q.** And the “LPS % cell toxicity” value (primary rat microglia [5]; [22])?
**A.** Its value is 0%.

**Q.** With `Cc1ccccc1N1C(=O)c2cc(S(N)(=O)=O)c(Cl)cc2NC1C` (centres unmarked) [Metolazone] as the molecule, how does the inhibition at 10 µM [1, 10] read?
**A.** The inhibition at 10 µM was -2%.

**Q.** And the “Quadrant (FIG. 5b)” value [2, 11]?
**A.** The value was “Q4”.

**Q.** What about the “Fibrin % cell toxicity” value (primary rat microglia [3]; [12]) of the same molecule?
**A.** The value was 1%.

**Q.** What about the inhibition at 10 µM [4, 13] of the same molecule?
**A.** The inhibition at 10 µM was 19%.

**Q.** And the “LPS % cell toxicity” value (primary rat microglia [5]; [14])?
**A.** Its value is 0%.

**Q.** What does the source list for `Cc1cc2c(cc1S(N)(=O)=O)S(=O)(=O)CCC2` [Meticrane]?
**A.** inhibition at 10 µM [1, 10]: -33%; Quadrant (FIG. 5b) [2, 11]: Q4; Fibrin % cell toxicity (primary rat microglia [3]; [12]): 0%; inhibition at 10 µM [4, 13]: 9%; LPS % cell toxicity (primary rat microglia [5]; [14]): 0%

**Q.** Which inhibition at 10 µM [1, 6] does the source give for `COc1cc(C(=O)NCCCCCC(=O)O)cc(OC)c1OC` [Capobenic Acid] here?
**A.** Its inhibition at 10 µM is 9%.

**Q.** What about the “Quadrant (FIG. 5b)” value ([2]; primary HTS, 10 μM) of the same molecule?
**A.** Its value is “Q4”.

**Q.** What about the “Fibrin % cell toxicity” value (primary rat microglia [3]; [7]) of the same molecule?
**A.** The value was 1%.

**Q.** What about the inhibition at 10 µM [4, 8] of the same molecule?
**A.** Its inhibition at 10 µM is 16%.

**Q.** And the “LPS % cell toxicity” value (primary rat microglia [5]; [9])?
**A.** The value was 0%.

**Q.** How did the Fibrin % inhibition [1, 10] turn out when `COc1ccc(CCN2CCC(Nc3nc4ccccc4n3Cc3ccc(F)cc3)CC2)cc1` [Astermizole] was run?
**A.** The Fibrin % inhibition was 10%.

**Q.** What about the “Quadrant (FIG. 5b)” value [2, 11] of the same molecule?
**A.** The value was “Q1”.

**Q.** What about the “Fibrin % cell toxicity” value (primary rat microglia [3]; [12]) of the same molecule?
**A.** Its value is 1%.

**Q.** And the LPS % inhibition ([4]; primary microglia HTS, LPS stimulation, increased cell size (>800 μm^2) as marker of activation)?
**A.** Its LPS % inhibition is 69%.

**Q.** What about the “LPS % cell toxicity” value (primary rat microglia [5]; [14]) of the same molecule?
**A.** Its value is 2%.

**Q.** What does the source list for `CC(C)OC(=O)CCC/C=C\C[C@@H]1[C@@H](CC[C@@H](O)CCc2ccccc2)[C@H](O)C[C@@H]1O` [Latanoprost]?
**A.** inhibition at 10 µM [1, 15]: 10%; Quadrant (FIG. 5b) [2, 11]: Q4; Fibrin % cell toxicity (primary rat microglia [3]; [16]): 1%; inhibition at 10 µM [4, 23]: 4%; LPS % cell toxicity (primary rat microglia [5]; [17]): 0%

**Q.** What does the source list for `C[N+]1(C)[C@@H]2CC[C@H]1C[C@@H](OC(=O)C(O)c1ccccc1)C2` (some centres unmarked) [Homatropine Methylbromide]?
**A.** inhibition at 10 µM [1, 15]: -18%; Quadrant (FIG. 5b) [2, 11]: Q4; Fibrin % cell toxicity (primary rat microglia [3]; [16]): 1%; inhibition at 10 µM [4, 23]: 12%; LPS % cell toxicity (primary rat microglia [5]; [17]): 0%
